O=c1ccc2ccccc2o1
solubility (mole fraction)
Details | 278.15 K | 283.15 K | 288.15 K | 293.15 K | 298.15 K | 303.15 K | 308.15 K | 313.15 K | 318.15 K
in cyclohexane | – | 0.00162 | 0.00236 | 0.00321 | 0.00428 | 0.00607 | 0.00824 | 0.0111 | 0.0144
in ethanol | 0.0071 | 0.011 | 0.0205 | 0.0331 | 0.0533 | 0.0869 | 0.138 | 0.222 | 0.357
in isopropanol | 0.00371 | 0.00604 | 0.0108 | 0.0204 | 0.0351 | 0.0604 | 0.101 | 0.171 | 0.282
in methanol | 0.012 | 0.0182 | 0.0303 | 0.05 | 0.0802 | 0.122 | 0.199 | 0.32 | 0.484
in n-hexane | 0.000862 | 0.00118 | 0.00169 | 0.0024 | 0.00319 | 0.00421 | 0.00574 | 0.00746 | 0.00962
in n-propanol | 0.00521 | 0.00952 | 0.0172 | 0.0282 | 0.0469 | 0.0781 | 0.124 | 0.202 | 0.33

Reference: BigSolDB 2.1
